Experimental data as given in patent publication US10829499B2, “Tetracyclic heterocycle compounds useful as HIV integrase inhibitors” (MERCK SHARP & DOHME CORP., priority 2016, dated 2020).
Like-named read-outs stand apart in the source and are kept apart here.

System: HIV-1 (NL4-3 strain)
Test: Assay for Inhibition of HIV Replication (kinetic assay, MT4-gag-GFP reporter cell line; VIKING)
Format: cell-based
Details: MT4-GFP cells infected with HIV-1 NL4-3
How it was run: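 MT4-gag-GFP cells infected with HIV-1 NL4-3 at low MOI for 24 h were seeded with compound (0.4% DMSO) in medium with 0%, 10% or 100% normal human serum. GFP-positive cells were counted at 24 and 48 h, and R0 was the 48 h/24 h ratio. Inhibition was scaled to DMSO and triple-drug controls, and IC50 came from 4-parameter fits.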

[1] = 0% normal human serum (NHS), read-out: VIKING IP50 (nM) with 0% NHS
[2] = 100% normal human serum (NHS), read-out: VIKING IP50 (nM) with 100% NHS

Compound `CCNC1CC2C3OCCCN3C(=O)c3c(O)c(=O)c(C(=O)NCc4cccc(F)c4F)c1n32` (centres unmarked) [Compound 192] has an IC50 [1] of 8.76 nM and an IC50 [2] of 92.3 nM.
Compound `CCNC1CC2C3OCCCN3C(=O)c3c(O)c(=O)c(C(=O)NCc4cccc(Cl)c4F)c1n32` (centres unmarked) [Compound 193] has an IC50 [1] of 7.89 nM and an IC50 [2] of 2910 nM.
In the case of `CCNC1CC2C3OCCCN3C(=O)c3c(O)c(=O)c(C(=O)NCc4cccc(Cl)c4F)c1n32` (centres unmarked) [Compound 194], the IC50 [1] is reported as 15.7 nM and the IC50 [2] is reported as 35.1 nM.
For `CCNC1CC2C3OCCCN3C(=O)c3c(O)c(=O)c(C(=O)NCc4cccc(Cl)c4F)c1n32` (centres unmarked) [Compound 195], the IC50 [1] was 12.4 nM and the IC50 [2] was 25.7 nM.
Work on `CCNC1CC2C3OCCCN3C(=O)c3c(O)c(=O)c(C(=O)NCc4cccc(Cl)c4F)c1n32` (centres unmarked) [Compound 196] yielded an IC50 [1] of 15.3 nM and an IC50 [2] of 883 nM.
In the case of `CCNC1CC2C3OCCCN3C(=O)c3c(O)c(=O)c(C(=O)NCc4cccc(Cl)c4F)c1n32` (centres unmarked) [Compound 197], the IC50 [1] is reported as 14 nM and the IC50 [2] is reported as 15100 nM.
Compound `CCNC1CC2C3OCCCN3C(=O)c3c(O)c(=O)c(C(=O)NCc4cccc(Cl)c4F)c1n32` (centres unmarked) [Compound 198] has an IC50 [1] of 5.29 nM and an IC50 [2] of 96.9 nM.
In the case of `CCNC1CC2C3OCCCN3C(=O)c3c(O)c(=O)c(C(=O)NCc4cccc(Cl)c4F)c1n32` (centres unmarked) [Compound 199], the IC50 [1] is reported as 7.12 nM and the IC50 [2] is reported as 42.9 nM.
`CCNC1CC2C3OCCCN3C(=O)c3c(O)c(=O)c(C(=O)NCc4cccc(Cl)c4F)c1n32` (centres unmarked) [Compound 200] showed an IC50 [1] of 10.1 nM and an IC50 [2] of 67.3 nM.
With `CCNC1CC2C3OCCCN3C(=O)c3c(O)c(=O)c(C(=O)NCc4ccc(F)cc4F)c1n32` (centres unmarked) [Compound 201] the IC50 [1] was 8.98 nM and the IC50 [2] was 2060 nM.
Compound `CCNC1CC2C3OCCCN3C(=O)c3c(O)c(=O)c(C(=O)NCc4ccc(F)cc4F)c1n32` (centres unmarked) [Compound 202] has an IC50 [1] of 7.73 nM and an IC50 [2] of 39.4 nM.
With `CCNC1CC2C3OCCCN3C(=O)c3c(O)c(=O)c(C(=O)NCc4ccc(F)cc4F)c1n32` (centres unmarked) [Compound 203] the IC50 [1] was 6.47 nM and the IC50 [2] was 25.8 nM.
With `CCNC1CC2C3OCCCN3C(=O)c3c(O)c(=O)c(C(=O)NCc4ccc(F)cc4F)c1n32` (centres unmarked) [Compound 204] the IC50 [1] was 15.7 nM and the IC50 [2] was 4830 nM.
For `CCNC1CC2C3OCCCN3C(=O)c3c(O)c(=O)c(C(=O)NCc4ccc(F)cc4F)c1n32` (centres unmarked) [Compound 205], the IC50 [1] was 11.3 nM and the IC50 [2] was 116 nM.
`CCNC1CC2C3OCCCN3C(=O)c3c(O)c(=O)c(C(=O)NCc4ccc(F)cc4F)c1n32` (centres unmarked) [Compound 206] was tested, and the IC50 [1] was 7.11 nM and the IC50 [2] was 51.6 nM.
Work on `CCNC1CC2C3OCCCN3C(=O)c3c(O)c(=O)c(C(=O)NCc4ccc(F)cc4F)c1n32` (centres unmarked) [Compound 207] yielded an IC50 [1] of 5.21 nM and an IC50 [2] of 140 nM.
